Results: patent US20180148687A1 (priority 2015, published 2018)
Like-named read-outs stand apart in the source and are kept apart here.

What was measured:
[1] = system: voltage-activated sodium channels; type: cell-based, human
[2] = system: BD-iNPC derived sensory neurons; assay: In vitro chemotherapy induced neuropathy model: neurite length and cell count; type: cell-based, human; settings: 48 hours after treatment
From the text: This miniaturized and automated approach illustrates the potential utility of these converted cells as an in vitro model of human axonopathy for drug-discovery and form the basis to expand to other PNS and CNS disorders.

P2X3 receptors = biological target: T1, P2X3 receptors (Homo sapiens, UniProt P56373); type: cell-based
T1 sequence (P56373 1-397): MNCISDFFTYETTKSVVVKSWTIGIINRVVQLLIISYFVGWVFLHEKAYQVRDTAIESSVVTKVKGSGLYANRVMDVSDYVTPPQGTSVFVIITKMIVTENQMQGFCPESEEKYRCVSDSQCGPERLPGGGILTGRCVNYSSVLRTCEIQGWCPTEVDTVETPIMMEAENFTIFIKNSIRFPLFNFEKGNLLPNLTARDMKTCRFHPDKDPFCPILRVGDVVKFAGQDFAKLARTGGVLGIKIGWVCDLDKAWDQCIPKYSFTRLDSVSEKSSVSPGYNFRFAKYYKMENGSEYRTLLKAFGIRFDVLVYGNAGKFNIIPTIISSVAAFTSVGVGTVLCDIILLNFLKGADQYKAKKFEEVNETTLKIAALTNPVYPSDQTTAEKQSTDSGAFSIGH
Description: (§1) Differentiated cells at 1-2 weeks were loaded with Fluo-4-AM fluorescence dye (Invitrogen, Calif.) for 1 hr incubation followed by 45 mins period for de-esterification. Cells were washed and incubated in Hanks' balanced salt solution (HBSS), supplemented with 25 mM HEPES buffer, 5.5 mM Glucose. Calcium flux was monitored using an Olympus IX81 inverted epi-fluorescence microscope (Olympus, Markham, ON) coupled to a xenon arc lamp (EXFO, Quebec, QC). Indicated agonists, α,β-methylene-ATP or capsaicin, were diluted in the aforementioned solution and added to the well to give the final stimulation concentration (30 μM α,β-methylene-ATP, 1 μM capsaicin) using a dropping pipette and aspirator system. Fluorescence images were collected using an EMCCD camera (Photometrics, Tucson, Ark.) every 2 s through a GFP filter cube (Semrock, Rochester, N.Y.). In a subset of wells, ionomycin was added as a second stimulation for the dye loading control. […] Off-line analysis of the intensity pattern of Fluo-4 signal was performed in ImageJ (NIH, Bethesda, Md.).

TRPV1 vanilloid receptor = biological target: T2, TRPV1 vanilloid receptor (Homo sapiens, UniProt Q8NER1); assay: Calcium imaging (Fluo-4) of BD-iNPC derived sensory neurons, capsaicin response; type: cell-based; settings: 1 μM
T2 construct: endogenous in cells; host or cells: nociceptive sensory neurons differentiated from human blood derived iNPCs
T2 sequence (Q8NER1 whole entry): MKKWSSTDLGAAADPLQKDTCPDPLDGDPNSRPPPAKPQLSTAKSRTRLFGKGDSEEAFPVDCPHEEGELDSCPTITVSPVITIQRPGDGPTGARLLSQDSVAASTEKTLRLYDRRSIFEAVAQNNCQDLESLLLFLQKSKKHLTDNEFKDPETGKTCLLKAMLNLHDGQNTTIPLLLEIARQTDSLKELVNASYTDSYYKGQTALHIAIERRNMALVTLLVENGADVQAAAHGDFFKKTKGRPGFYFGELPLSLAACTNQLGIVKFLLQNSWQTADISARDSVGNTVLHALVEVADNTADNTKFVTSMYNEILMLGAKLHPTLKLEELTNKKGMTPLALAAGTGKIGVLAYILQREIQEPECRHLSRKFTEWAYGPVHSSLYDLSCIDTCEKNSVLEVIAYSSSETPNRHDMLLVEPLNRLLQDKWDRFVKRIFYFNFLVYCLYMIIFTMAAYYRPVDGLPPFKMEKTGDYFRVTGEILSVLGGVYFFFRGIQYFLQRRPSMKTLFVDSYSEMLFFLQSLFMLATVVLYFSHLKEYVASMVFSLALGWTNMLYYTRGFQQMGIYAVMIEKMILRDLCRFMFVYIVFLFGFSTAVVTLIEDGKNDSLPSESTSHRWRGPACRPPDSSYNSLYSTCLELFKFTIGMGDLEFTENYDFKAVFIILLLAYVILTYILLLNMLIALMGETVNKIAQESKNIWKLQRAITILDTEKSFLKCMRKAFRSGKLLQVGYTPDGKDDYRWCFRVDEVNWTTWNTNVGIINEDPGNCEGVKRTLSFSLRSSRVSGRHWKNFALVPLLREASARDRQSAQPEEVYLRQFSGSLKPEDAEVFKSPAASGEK
Description: as §1

For `NC1=N[C@H](O)[C@H]2[C@H]3O[C@]4(O)O[C@@H]([C@@H](O)[C@@]2(N1)[C@@H]4O)[C@]3(O)CO` [tetrodotoxin], the “rapidly activating and inactivating inward currents” value [1] was “blocked”.

With `CC(=O)O[C@H]1C(=O)[C@@]2(C)[C@H]([C@H](OC(=O)c3ccccc3)[C@]3(O)C[C@H](OC(=O)[C@H](O)[C@@H](NC(=O)c4ccccc4)c4ccccc4)C(C)=C1C3(C)C)[C@]1(OC(C)=O)CO[C@@H]1C[C@@H]2O` [Taxol] the “neurite length of sensory neurons” value [2] was “dose-dependent reduction in length” and the “viability (cell count) of sensory neurons” value [2] was “without concomitant loss of viability”.

In the case of `Nc1ncnc2c1ncn2[C@@H]1O[C@H](COP(=O)(O)CP(=O)(O)OP(=O)(O)O)[C@@H](O)[C@H]1O` [α,β-methylene-ATP], the “calcium transients in BD-iNPC derived neurons” value (P2X3 receptors; 30 μM) is reported as “could evoke calcium transients”, the calcium flux response (P2X3 receptors; 30 μM, continued culture to day 14) is reported as “robust response” and the calcium flux response (P2X3 receptors; 30 μM, neurons at day 7 post-induction) is reported as “minimal response”.

For `COc1cc(CNC(=O)CCCC/C=C/C(C)C)ccc1O` [capsaicin], the “calcium transients in BD-iNPC derived neurons” value (TRPV1 vanilloid receptor) was “could evoke calcium transients”.

For `O=C(O)c1cc(C(=O)O)c(C(=O)N(Cc2cccc(Oc3ccccc3)c2)[C@H]2CCCc3ccccc32)cc1C(=O)O` [A-317491], the “calcium-response to α,β-methylene ATP” value (P2X3 receptors; antagonist added 15 min before calcium imaging, 30 μM α,β-methylene-ATP stimulation) was “significantly decreased”.
